# Experimental data as given in patent publication US5672710A, “Sulfides, sulfoxides and sulfones disubstituted with a tetrahydronaphthalenyl, chromanyl, thiochromanyl or tetrahydroquinolinyl and substituted phenyl or heteroaryl group, having retinoid-like biological activity” (priority 1995, dated 1997).
# Legend:
# RARα [1] = molecular target: T1, RARα (Homo sapiens, UniProt P10276); experiment: Holoreceptor transactivation assay, RARα; type: cell-based; conditions: CV-1; CV1 cells; relative to all trans retinoic acid; read-out: Transactivation Assay Efficacy (% of RA activity), RARα
# T1 construct: expressed in transfected cells; host or cells: CV1
# T1 sequence (P10276 1-462): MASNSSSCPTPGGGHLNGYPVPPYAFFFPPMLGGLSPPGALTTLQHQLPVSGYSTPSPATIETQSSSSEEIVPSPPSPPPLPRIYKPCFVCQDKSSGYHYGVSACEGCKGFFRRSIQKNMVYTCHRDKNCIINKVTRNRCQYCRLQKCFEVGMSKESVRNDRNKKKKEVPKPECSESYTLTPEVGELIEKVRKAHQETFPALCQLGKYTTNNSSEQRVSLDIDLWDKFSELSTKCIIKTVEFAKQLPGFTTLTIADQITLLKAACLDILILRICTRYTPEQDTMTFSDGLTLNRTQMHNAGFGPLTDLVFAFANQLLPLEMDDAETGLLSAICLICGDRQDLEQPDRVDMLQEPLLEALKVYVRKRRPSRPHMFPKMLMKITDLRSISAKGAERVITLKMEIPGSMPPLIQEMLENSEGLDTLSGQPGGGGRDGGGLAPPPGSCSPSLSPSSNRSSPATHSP
# From the text: (§1) A holoreceptor transactivation assay and a ligand binding assay which measure the ability of the compounds of the invention to bind to the several retinoid receptor subtypes, respectively, are described in published PCT Application No. WO W093/11755 (particularly on pages 30-33 and 37-41) published on Jun. 24, 1993, the specification of which is also incorporated herein by reference. A description of the holoreceptor transactivation assay is also provided below.
# (§2) CV1 cells (5,000 cells/well) were transfected with an RAR reporter plasmid MTV-TREp-LUC (50 ng) along with one of the […] expression vectors (10 ng) in an automated 96-well format by the calcium phosphate procedure of Heyman et al. Cell 68, 397-406. (8). For RXRα and RXR.GAMMA. transactivation assays, an RXR-responsive reporter plasmid CRBPII-tk-LUC (50 ng) along with the appropriate RXRexpression vectors (10 ng) was used substantially as described by Heyman et al. above, and Allegretto et al. J. Biol. Chem. 268, 26625-26633. For RXRβ transactivation assays, an RXR-responsive reporter plasmid CPRE-tk-LUC ([…]) along with RXRβ expression vector ([…]) was used as described in above. These reporters contain DRI elements from human CRBPII and certain DRI elements from promoter, respectively. (see Mangelsdorf et al. The Retinoids: Biology, Chemistry and Medicine, pp 319-349, Raven Press Ltd., New York and Heyman et al., cited above) (1, 8). A β-galactosidase (50 ng) expression vector was used as an internal control in the transfections to normalize for variations in transfection efficiency. The cells were transfected in triplicate for 6 hours, followed by incubation with retinoids for 36 hours, and the extracts were assayed for luciferase and β-galactosidase activities. The detailed experimental procedure for holoreceptor transactivations has been described in Heyman et al. above, and Allegretto et al. cited above. The results obtained in this assay in connection with examplary compounds in accordance with the present invention are expressed in EC50 numbers, as they are also in the chimeric receptor transactivation assay. The Heyman et al. Cell 68, 397-406, Allegretto et al. J. Biol. Chem. 268, 26625-26633, and Mangelsdorf et al. The Retinoids: Biology, Chemistry and Medicine, pp 319-349, Raven Press Ltd., New York, are expressly incorporated herein by reference. The results of ligand binding assay are expressed in Kd numbers. (See Cheng et al. Biochemical Pharmacology Vol. 22 pp 3099-3108, expressly incorporated herein by reference.)
# RARα [2] = molecular target: T1, RARα; experiment: Ligand binding assay, RARα
# From the text: as §1, §2
# RARβ = molecular target: T2, RARβ (Homo sapiens, UniProt P10826); experiment: Ligand binding assay, RARβ
# T2 construct: expressed in transfected cells; host or cells: CV1
# T2 sequence (P10826 1-448 isoform P10826-2): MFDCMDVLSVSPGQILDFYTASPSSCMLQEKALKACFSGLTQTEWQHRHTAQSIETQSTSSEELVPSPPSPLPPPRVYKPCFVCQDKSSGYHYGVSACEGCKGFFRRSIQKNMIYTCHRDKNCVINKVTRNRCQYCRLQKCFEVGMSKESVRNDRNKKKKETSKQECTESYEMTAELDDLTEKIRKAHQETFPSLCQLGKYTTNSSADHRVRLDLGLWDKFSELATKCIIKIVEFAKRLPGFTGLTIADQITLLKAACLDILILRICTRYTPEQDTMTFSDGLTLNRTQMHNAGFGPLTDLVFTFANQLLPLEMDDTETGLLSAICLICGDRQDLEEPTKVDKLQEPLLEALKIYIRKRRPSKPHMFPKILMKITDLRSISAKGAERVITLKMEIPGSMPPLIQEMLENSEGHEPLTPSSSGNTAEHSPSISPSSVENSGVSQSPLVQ
# From the text: as §1, §2
# RXRγ = molecular target: T3, RXRγ (Mus musculus, UniProt P28705); experiment: Ligand binding assay, RXRγ
# T3 construct: expressed in transfected cells; host or cells: CV1
# T3 sequence (P28705 1-463): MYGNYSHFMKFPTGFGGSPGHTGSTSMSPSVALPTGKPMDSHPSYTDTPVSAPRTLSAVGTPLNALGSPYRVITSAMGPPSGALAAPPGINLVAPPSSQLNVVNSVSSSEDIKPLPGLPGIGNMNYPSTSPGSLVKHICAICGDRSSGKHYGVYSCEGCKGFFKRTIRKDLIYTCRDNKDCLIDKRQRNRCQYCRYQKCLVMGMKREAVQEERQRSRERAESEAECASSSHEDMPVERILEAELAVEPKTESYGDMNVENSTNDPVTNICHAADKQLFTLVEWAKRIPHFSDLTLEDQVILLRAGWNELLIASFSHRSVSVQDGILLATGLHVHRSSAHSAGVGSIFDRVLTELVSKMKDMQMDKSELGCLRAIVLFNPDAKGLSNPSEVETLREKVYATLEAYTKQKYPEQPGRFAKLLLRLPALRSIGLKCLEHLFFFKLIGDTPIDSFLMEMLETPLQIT
# From the text: as §1, §2
SMILES,Emax (RARα [1]),Kd (RARα [2]),Kd (RARβ),Kd (RXRγ)
"Cc1cc2c(cc1[S+]([O-])c1ccc(C(=O)O)cc1)C(C)(C)CCC2(C)C (stereo not drawn) [Compound 9, 4-(5,6,7,8-tetrahydro-3,5,5,8,8-pentamethyl-2-naphthylsulfoxy)benzoic acid]",5%,> 1000 nM,> 1000 nM,> 1000 nM
"Cc1cc2c(cc1S(=O)(=O)c1ccc(C(=O)O)cc1)C(C)(C)CCC2(C)C [Compound 11, 4-(5,6,7,8-tetrahydro-3,5,5,8,8-pentamethyl-2-naphthylsulfonyl)benzoic acid]",2%,> 1000 nM,> 1000 nM,> 1000 nM
Cc1cc2c(cc1Sc1ccc(C(=O)O)cn1)C(C)(C)CCC2(C)C [Compound 13],1%,> 10000 nM,> 10000 nM,73 nM
"Cc1cc2c(cc1Sc1ncc(C(=O)O)s1)C(C)(C)CCC2(C)C [Compound 15, 2-(5,6,7,8-Tetrahydro-3,5,5,8,8-pentamethyl-2-naphthylthio)-5-thiazolecarboxylic acid]",1%,> 1000 nM,> 1000 nM,> 1000 nM

# Second part, the molecule after the results:
Emax (RARα [1]),Kd (RARα [2]),Kd (RARβ),Kd (RXRγ),SMILES
3%,> 1000 nM,> 1000 nM,–,CC1(C)CCC(C)(C)c2cc(Sc3ccc(C(=O)O)cc3)ccc21 [Compound 2]
10%,> 1000 nM,> 1000 nM,> 1000 nM,"CC1(C)CCC(C)(C)c2cc(S(=O)(=O)c3ccc(C(=O)O)cc3)ccc21 [Compound 5, 4-(5,6,7,8-tetrahydro-5,5,8,8-tetramethyl-2-naphthylsulfonyl)benzoic acid]"
3%,> 1000 nM,> 1000 nM,304 nM,"Cc1cc2c(cc1Sc1ccc(C(=O)O)cc1)C(C)(C)CCC2(C)C [Compound 7, 4-(5,6,7,8-tetrahydro-3,5,5,8,8-pentamethyl-2-Daphthylthio)benzoic acid]"
